# Measurements as given in US20180125816A1, “SAROGLITAZAR MAGNESIUM FOR THE TREATMENT OF CHYLOMICRONEMIA SYNDROME” (CADILA HEALTHCARE LIMITED, priority 2015, published 2018).
# Key:
# Zucker fa/fa rats [1] = assay: Fatty tolerance test with 13C-palmitate/corn oil after 14 days repeated dosing: hyper-chylomicronemia and chylomicron dynamics; type: in vivo, rat; details: for 13C Palmitate / Palmitate total: adipose tissue
# Experimental: In this study, the effect of Compound (1) on hyper-chylomicronemia and chylomicron dynamics in Zucker fa/fa rats after 14 days repeated dose administration was evaluated.
# Zucker (fa/fa) fatty rat of 7-8 weeks of age were purchased from Charles River Laboratory and single-housed under a pathogen free environment with constant room temperature (20-22° C.) and relative humidity (40-50%) and a 6:00 pm-6:00 am dark-light cycle. Rats were provided with free access to food (Lab Diet 5L0D, an irradiated regular rodent diet containing 23% of protein and 4.5% of fat) and water. Initial body weight and body composition (using a NMR analyzer) were measured 6 days post-arrival. The rats were then randomly divided into four dosing groups based BW and fat mass as below—
# Dosing was begun at 9-10 weeks of age, once daily (8-10 am) by oral gavage for 14 days. On the day-14 of dosing, a final body composition (after dosing) was measured. On day-15, all animals were given a fatty tolerance test (FTT) after being fasted overnight (15-16 hours), followed by blood and tissue collection.
# Fatty Tolerance Test Procedure (FTT): • 1. Following an overnight fast, rats were orally gavaged with a mixture of ^13C-Palmitic Acid (1 and corn oil (1 g of^13C-P dissolved in 5 ml of corn oil) at 5 ml/kg·bw. • 2. Blood samples were collected via tail vein bleeding using 3×300 ul EDTA tubes at the following time points:
# 0 hour (initial), 1 hour, 2 hour, 3 hour, 4 hour, 5 hour, 6 hour, 8 hour
# After the 8 hour bleeding, rats were knocked down in a drop jar using isoflurane. Once sedated, the rats were hooked up to a Midmark Matrx Anesthesia isoflurane machine that dispensed isoflurane vapor at […] with an oxygen flow rate of 1 L/min. Organs and tissues were dissected and frozen immediately in liquid nitrogen and stored at −80° C. LCMS and GCMS were used to assess the incorporation of ^13C lipids into plasma and tissue lipids (n=5 for tissue metabolomics studies).
# Zucker fa/fa rats [2] = assay: Severe hypertriglyceridemia induced by Triton WR-1339 (inhibition of LPL) in Zucker fa/fa rats, serum triglycerides; type: in vivo, rat; details: for % Change in AUC-TG vs Vehicle Control: AUC 0-48 hr; for reduction in serum triglycerides (TG): 0-hr time point, after repeat dose treatment
# Experimental: The obese Zucker (fatty) rat is one of the oldest models of NIDDM, resembling human type II diabetes, i.e. diabetes associated with obesity. It is characterized by hyperphagia and associated with mild hyperglycaemia, insulin resistance, mild glucose intolerance, hyperlipidaemia specially hypertriglyceridemia. When the non-ionic detergent Triton WR-1339 is injected into Zucker fa/fa rats, there is a progressive accumulation of triacylglycerols in the plasma/serum (Friedman & Byers, 1953; Otway & Robinson, 1967). […] So the nonionic detergent, Triton WR-1339 (Triton), has commonly been used to inhibit LPL for this purpose to produce the condition of severe hypertriglyceridemia similar to familial chylomicronemia syndrome and Type V hyperlipoproteinemia.
# In this study 20 male and 14 female Zucker fa/fa rats of 6-10 weeks of age were selected for the and on day-0, body weight of animals recorded and blood samples (approximately 80 μl to 90 μl) was collected via retro orbital route using isoflurane as inhalation anaesthesia, serum separated and serum triglyceride estimated and 24 animals were selected and grouped on the basis of serum triglyceride level as primary parameter as below
# From hyphen or day-1 to Day-14, compounds were formulated in 5% PEG+5% Tween 80+90% (0.5%) Na-CMC in such, a way that the final volume of administration was 2 ml/kg of body wt, and animals were dosed orally once daily as per grouping details.
# On day-14 blood samples were collected after 1 hour of dosing, serum separated and serum triglycerides (TG) was estimated. Animals were being kept on 24 hours fasting after completion of day-14 activities. On day-15, after 24 hours of fasting, body wt. of all animals was recorded. Then formulations of treatment items were prepared in vehicle and Triton WR-1339 prepared in 0.9% saline for intraperitoneal injection at dose of 250 mg/kg per 5 ml. Basal blood samples collected and animals were administered orally with respective treatment and immediately injected intraperitoneally with Triton WR-1339. Blood samples (approx, 1 ml per sample) were also collected at 6 hr, 24 hours and 48 hours after triton administration and serum triglycerides levels were estimated using Cobas C 311 clinical chemistry autoanalyser from Roche Diagnostics using commercial diagnostic kits.
# % change at 6-hr, 24-hr and 48-hr for TG vs Vehicle Control was calculated using MS using MS Excel. The area under curve for TG, AUC-TG (0-48), was calculated using Graph Pad® software.
structure (smiles),measurement,setting,value
"CCO[C@@H](Cc1ccc(OCCn2c(C)ccc2-c2ccc(SC)cc2)cc1)C(=O)O [Compound (1), Saroglitazar Magnesium]",plasma triglyceride (TG) in FTT (in words),Zucker fa/fa rats [1]; 0 and 2 hour post corn oil treatment,significantly reduced plasma triglyceride (TG)
same,% Change in 13C Palmitate uptake in adipose tissue Vs Vehicle Control,Zucker fa/fa rats [1]; 0.4 mg/kg p.o.,86%
same,Plasma TG in FTT,"Zucker fa/fa rats [1]; 0.4 mg/kg p.o. 14 days, 0 min",330.5 ± 39.2 mg/dL
same,Plasma TG in FTT,"Zucker fa/fa rats [1]; 0.4 mg/kg p.o. 14 days, 120 min",389.2 ± 21.8 mg/dL
same,13C Palmitate,Zucker fa/fa rats [1]; 0.4 mg/kg p.o.,6.20 ± 0.89 Nanomole/mg protein
same,Palmitate total,Zucker fa/fa rats [1]; 0.4 mg/kg p.o.,7.14 ± 0.30 micromole/mg protein
same,% Change in 13C Palmitate uptake in adipose tissue Vs Vehicle Control,Zucker fa/fa rats [1]; 4 mg/kg p.o.,247%
same,Plasma TG in FTT,"Zucker fa/fa rats [1]; 4 mg/kg p.o. 14 days, 0 min",84.7 ± 9.3 mg/dL
same,Plasma TG in FTT,"Zucker fa/fa rats [1]; 4 mg/kg p.o. 14 days, 120 min",171.3 ± 28.2 mg/dL
same,13C Palmitate,Zucker fa/fa rats [1]; 4 mg/kg p.o.,11.57 ± 0.73 Nanomole/mg protein
same,Palmitate total,Zucker fa/fa rats [1]; 4 mg/kg p.o.,6.60 ± 0.29 micromole/mg protein
same,fasting and postprandial TG levels (in words),Zucker fa/fa rats [1]; conclusion of the study,significantly reduces fasting and postprandial TG levels
same,increase in accumulation of M+16 palmitate in adipose tissue,Zucker fa/fa rats [1]; high dose (4 mg/kg),247%
same,appearance of M+16 TG species TG (52:3) and TG (52:4) in plasma (in words),Zucker fa/fa rats [1]; low (0.4 mg/kg) and high (4 mg/kg) dose,significantly attenuated the appearance of M+16 TG
same,gastrocnemius M+16 palmitate labeling (in words),Zucker fa/fa rats [1]; low and high dose (0.4 and 4 mg/kg),decreased gastrocnemius M+16 palmitate labeling
same,increase in accumulation of M+16 palmitate in adipose tissue,Zucker fa/fa rats [1]; low dose (0.4 mg/kg),86%
same,reduction in AUC-TG Vs Vehicle control group,Zucker fa/fa rats [2]; 1 mg/kg,48%
same,AUC-TG (0-48 hr.),Zucker fa/fa rats [2]; 1 mg/kg p.o. once daily,54241.5 ± 11182.3 mg·h/dL
same,Serum Triglycerides after Triton WR-1339 administration,"Zucker fa/fa rats [2]; 1 mg/kg p.o. once daily, 0 hr",188.3 ± 15.6 mg/dL
same,Serum Triglycerides after Triton WR-1339 administration,"Zucker fa/fa rats [2]; 1 mg/kg p.o. once daily, 6 hr",438.5 ± 52.7 mg/dL
same,Serum Triglycerides after Triton WR-1339 administration,"Zucker fa/fa rats [2]; 1 mg/kg p.o. once daily, 24 hr",1797.2 ± 331.3 mg/dL
same,Serum Triglycerides after Triton WR-1339 administration,"Zucker fa/fa rats [2]; 1 mg/kg p.o. once daily, 48 hr",889.5 ± 353.9 mg/dL
same,% Change in TG Vs Vehicle Control,"Zucker fa/fa rats [2]; 1 mg/kg p.o., 0 hr after Triton WR-1339",−63.7 ± 3.0%
same,% Change in TG Vs Vehicle Control,"Zucker fa/fa rats [2]; 1 mg/kg p.o., 6 hr after Triton WR-1339",−43.6 ± 6.8%
same,% Change in TG Vs Vehicle Control,"Zucker fa/fa rats [2]; 1 mg/kg p.o., 24 hr after Triton WR-1339",−44.7 ± 10.2%
same,% Change in TG Vs Vehicle Control,"Zucker fa/fa rats [2]; 1 mg/kg p.o., 48 hr after Triton WR-1339",−59.1 ± 16.3%
same,% Change in AUC-TG vs Vehicle Control,Zucker fa/fa rats [2]; 1 mg/kg p.o.,−48.4 ± 10.6%
same,reduction in serum triglycerides (TG),Zucker fa/fa rats [2]; 1 mg/kg,64%
same,reduction in AUC-TG Vs Vehicle control group,Zucker fa/fa rats [2]; 10 mg/kg,63%
same,AUC-TG (0-48 hr.),Zucker fa/fa rats [2]; 10 mg/kg p.o. once daily,39050.3 ± 6922.7 mg·h/dL
same,Serum Triglycerides after Triton WR-1339 administration,"Zucker fa/fa rats [2]; 10 mg/kg p.o. once daily, 0 hr",93.2 ± 7.9 mg/dL
same,Serum Triglycerides after Triton WR-1339 administration,"Zucker fa/fa rats [2]; 10 mg/kg p.o. once daily, 6 hr",328.9 ± 111.9 mg/dL
same,Serum Triglycerides after Triton WR-1339 administration,"Zucker fa/fa rats [2]; 10 mg/kg p.o. once daily, 24 hr",1463.8 ± 265.3 mg/dL
same,Serum Triglycerides after Triton WR-1339 administration,"Zucker fa/fa rats [2]; 10 mg/kg p.o. once daily, 48 hr",340.4 ± 151.7 mg/dL
same,% Change in TG Vs Vehicle Control,"Zucker fa/fa rats [2]; 10 mg/kg p.o., 0 hr after Triton WR-1339",−82.0 ± 1.5%
same,% Change in TG Vs Vehicle Control,"Zucker fa/fa rats [2]; 10 mg/kg p.o., 6 hr after Triton WR-1339",−57.7 ± 14.4%
same,% Change in TG Vs Vehicle Control,"Zucker fa/fa rats [2]; 10 mg/kg p.o., 48 hr after Triton WR-1339",−84.3 ± 7.0%
same,% Change in AUC-TG vs Vehicle Control,Zucker fa/fa rats [2]; 10 mg/kg p.o.,−62.9 ± 6.6%
same,reduction in serum triglycerides (TG),Zucker fa/fa rats [2]; 10 mg/kg,82%
same,lowering of TG levels (in words),"Zucker fa/fa rats [2]; 1 and 10 mg/kg, all time points after Triton WR-1339",dose dependent lowering of TG levels at all-time points
same,blunting an increase in serum triglycerides (in words),Zucker fa/fa rats [2]; compared to fenofibrate,significantly effective in blunting an increase in serum triglycerides
"CC(C)OC(=O)C(C)(C)Oc1ccc(C(=O)c2ccc(Cl)cc2)cc1 [Fenofibrate, reference compound]",% Change in 13C Palmitate uptake in adipose tissue Vs Vehicle Control,Zucker fa/fa rats [1]; 150 mg/kg p.o.,−14%
same,Plasma TG in FTT,"Zucker fa/fa rats [1]; 150 mg/kg p.o. 14 days, 120 min",502.2 ± 8.1 mg/dL
same,13C Palmitate,Zucker fa/fa rats [1]; 150 mg/kg p.o.,2.88 ± 0.57 Nanomole/mg protein
same,Palmitate total,Zucker fa/fa rats [1]; 150 mg/kg p.o.,6.90 ± 0.24 micromole/mg protein
same,reduction in AUC-TG Vs Vehicle control group,Zucker fa/fa rats [2]; 65 mg/kg,11%
same,AUC-TG (0-48 hr.),Zucker fa/fa rats [2]; 65 mg/kg p.o. once daily,93412.8 ± 12023.5 mg·h/dL
same,Serum Triglycerides after Triton WR-1339 administration,"Zucker fa/fa rats [2]; 65 mg/kg p.o. once daily, 0 hr",324.9 ± 45.3 mg/dL
same,Serum Triglycerides after Triton WR-1339 administration,"Zucker fa/fa rats [2]; 65 mg/kg p.o. once daily, 6 hr",1048.1 ± 147.4 mg/dL
same,Serum Triglycerides after Triton WR-1339 administration,"Zucker fa/fa rats [2]; 65 mg/kg p.o. once daily, 24 hr",2871.5 ± 357.4 mg/dL
same,Serum Triglycerides after Triton WR-1339 administration,"Zucker fa/fa rats [2]; 65 mg/kg p.o. once daily, 48 hr",1630.0 ± 329.8 mg/dL
same,% Change in TG Vs Vehicle Control,"Zucker fa/fa rats [2]; 65 mg/kg p.o., 0 hr after Triton WR-1339",−37.4 ± 8.7%
same,% Change in TG Vs Vehicle Control,"Zucker fa/fa rats [2]; 65 mg/kg p.o., 6 hr after Triton WR-1339",34.9 ± 19.0%
same,% Change in TG Vs Vehicle Control,"Zucker fa/fa rats [2]; 65 mg/kg p.o., 48 hr after Triton WR-1339",−25.0 ± 15.2%
